According to PubChem BioAssay AID2060625 (Molecular Pharmacology Branch, DTP, NCI, 2025):
pIC50: −log10 of the molar value. Where “and” joins values, the source holds several entries; their conditions need not be identical. Equal values may be shown once.

Tested on: 186277-243-T-J2-PDC spheroids with HUVEC/MSC, viability
Experiment: Anticancer human tumor 186277-243-T-J2-PDC patient-derived colon adenocarcinoma cell line growth inhibition [CLK]
Details: for viability, T/C: stronger effect = lower value
Method in brief: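 Patient-derived tumor cells grown as complex spheroids with HUVEC endothelial cells and mesenchymal stem cells, treated with drug combinations. Concentrations descend in half-log steps from near clinical Cmax, or from 10 microM if Cmax unknown.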

[1] = curve of first compound, second compound 0.0316 µM
[2] = curve of first compound, second compound 0.1 µM
[3] = curve of first compound, second compound 0.316 µM
[4] = curve of first compound, second compound 1 µM
[5] = curve of first compound, second compound 3.16 µM
[6] = curve of first compound, second compound 10 µM
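Note: compound exposure lasted seven days before readout.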
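Throughout, for viability, T/C: 100% = DMSO vehicle control wells.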

## C=CC(=O)Nc1cc(Nc2nccc(-c3cn(C)c4ccccc34)n2)c(OC)cc1N(C)CCN(C)C + CN1CCN(c2cc(C(=O)Nc3cc4cc(-c5cnn(C)c5)ccc4cn3)ccn2)CC1
[1]
  pIC50: < 6.52
[2]
  pIC50: < 6.52
[3]
  pIC50: > 9.02
[4]
  pIC50: > 9.02
[5]
  pIC50: > 9.02
[6]
  pIC50: > 9.02
Second compound 0.0316 µM, first compound 0.000949 µM
  viability, T/C: 92.1%
Second compound 0.0316 µM, first compound 0.003 µM
  viability, T/C: 92.6%
Second compound 0.0316 µM, first compound 0.00949 µM
  viability, T/C: 90.9%
Second compound 0.0316 µM, first compound 0.03 µM
  viability, T/C: 78.2%
Second compound 0.0316 µM, first compound 0.0949 µM
  viability, T/C: 83.8%
Second compound 0.0316 µM, first compound 0.3 µM
  viability, T/C: 82.2%
Second compound 0.1 µM, first compound 0.000949 µM
  viability, T/C: 87%
Second compound 0.1 µM, first compound 0.003 µM
  viability, T/C: 75.6%
Second compound 0.1 µM, first compound 0.00949 µM
  viability, T/C: 86.8%
Second compound 0.1 µM, first compound 0.03 µM
  viability, T/C: 92.3%
Second compound 0.1 µM, first compound 0.0949 µM
  viability, T/C: 70.9%
Second compound 0.1 µM, first compound 0.3 µM
  viability, T/C: 64%
Second compound 0.316 µM, first compound 0.000949 µM
  viability, T/C: 25.9%
Second compound 0.316 µM, first compound 0.003 µM
  viability, T/C: 26.1%
Second compound 0.316 µM, first compound 0.00949 µM
  viability, T/C: 25.2%
Second compound 0.316 µM, first compound 0.03 µM
  viability, T/C: 21.2%
Second compound 0.316 µM, first compound 0.0949 µM
  viability, T/C: 20.8%
Second compound 0.316 µM, first compound 0.3 µM
  viability, T/C: 14%
Second compound 1 µM, first compound 0.000949 µM
  viability, T/C: 0.45%
Second compound 1 µM, first compound 0.003 µM
  viability, T/C: 0.44%
Second compound 1 µM, first compound 0.00949 µM
  viability, T/C: 1.59%
Second compound 1 µM, first compound 0.03 µM
  viability, T/C: 0.36%
Second compound 1 µM, first compound 0.0949 µM
  viability, T/C: 0.85%
Second compound 1 µM, first compound 0.3 µM
  viability, T/C: 0.32%
Second compound 3.16 µM, first compound 0.000949 µM
  viability, T/C: 1.64%
Second compound 3.16 µM, first compound 0.003 µM
  viability, T/C: 1.27%
Second compound 3.16 µM, first compound 0.00949 µM
  viability, T/C: 2.11%
Second compound 3.16 µM, first compound 0.03 µM
  viability, T/C: 0.98%
Second compound 3.16 µM, first compound 0.0949 µM
  viability, T/C: 0.87%
Second compound 3.16 µM, first compound 0.3 µM
  viability, T/C: 0.74%
Second compound 10 µM, first compound 0.000949 µM
  viability, T/C: 0.65%
Second compound 10 µM, first compound 0.003 µM
  viability, T/C: 0.71%
Second compound 10 µM, first compound 0.00949 µM
  viability, T/C: 0.97%
Second compound 10 µM, first compound 0.03 µM
  viability, T/C: 0.86%
Second compound 10 µM, first compound 0.0949 µM
  viability, T/C: 0.61%
Second compound 10 µM, first compound 0.3 µM
  viability, T/C: 1.03%

## C=CC(=O)N1CCN(c2nc(=O)n(-c3c(C)ccnc3C(C)C)c3nc(-c4c(O)cccc4F)c(F)cc23)C(C)C1 (stereo unspecified)
Compound 0.0316 µM
  viability, T/C: 103% and 87.6%
Compound 0.1 µM
  viability, T/C: 91.4% and 96.3%
Compound 0.316 µM
  viability, T/C: 97.5% and 90.2%
Compound 1 µM
  viability, T/C: 80.2% and 105%
Compound 3.16 µM
  viability, T/C: 107% and 105%
Compound 10 µM
  viability, T/C: 95.2% and 98.2%
Curve of compound
  pIC50: < 5.00

## CCc1c2c(nc3ccc(O)cc13)-c1cc3c(c(=O)n1C2)COC(=O)[C@]3(O)CC + CN1CCN(c2cc(C(=O)Nc3cc4cc(-c5cnn(C)c5)ccc4cn3)ccn2)CC1
[1]
  pIC50: 7.65
[2]
  pIC50: 7.85
[3]
  pIC50: > 8.50
[4]
  pIC50: > 8.50
[5]
  pIC50: > 8.50
[6]
  pIC50: > 8.50
Second compound 0.0316 µM, first compound 0.00316 µM
  viability, T/C: 82.2%
Second compound 0.0316 µM, first compound 0.01 µM
  viability, T/C: 73.1%
Second compound 0.0316 µM, first compound 0.0316 µM
  viability, T/C: 39.9%
Second compound 0.0316 µM, first compound 0.1 µM
  viability, T/C: 22.3%
Second compound 0.0316 µM, first compound 0.316 µM
  viability, T/C: 19.1%
Second compound 0.0316 µM, first compound 1 µM
  viability, T/C: 14.1%
Second compound 0.1 µM, first compound 0.00316 µM
  viability, T/C: 66.9%
Second compound 0.1 µM, first compound 0.01 µM
  viability, T/C: 58.6%
Second compound 0.1 µM, first compound 0.0316 µM
  viability, T/C: 31.4%
Second compound 0.1 µM, first compound 0.1 µM
  viability, T/C: 17.5%
Second compound 0.1 µM, first compound 0.316 µM
  viability, T/C: 14.3%
Second compound 0.1 µM, first compound 1 µM
  viability, T/C: 8.76%
Second compound 0.316 µM, first compound 0.00316 µM
  viability, T/C: 17.9%
Second compound 0.316 µM, first compound 0.01 µM
  viability, T/C: 19%
Second compound 0.316 µM, first compound 0.0316 µM
  viability, T/C: 14.4%
Second compound 0.316 µM, first compound 0.1 µM
  viability, T/C: 8.65%
Second compound 0.316 µM, first compound 0.316 µM
  viability, T/C: 2.67%
Second compound 0.316 µM, first compound 1 µM
  viability, T/C: 1.34%
Second compound 1 µM, first compound 0.00316 µM
  viability, T/C: 1.11%
Second compound 1 µM, first compound 0.01 µM
  viability, T/C: 3.1%
Second compound 1 µM, first compound 0.0316 µM
  viability, T/C: 1.69%
Second compound 1 µM, first compound 0.1 µM
  viability, T/C: 0.66%
Second compound 1 µM, first compound 0.316 µM
  viability, T/C: 1.14%
Second compound 1 µM, first compound 1 µM
  viability, T/C: 1.75%
Second compound 3.16 µM, first compound 0.00316 µM
  viability, T/C: 0.95%
Second compound 3.16 µM, first compound 0.01 µM
  viability, T/C: 2.49%
Second compound 3.16 µM, first compound 0.0316 µM
  viability, T/C: 1.5%
Second compound 3.16 µM, first compound 0.1 µM
  viability, T/C: 1.25%
Second compound 3.16 µM, first compound 0.316 µM
  viability, T/C: 2.1%
Second compound 3.16 µM, first compound 1 µM
  viability, T/C: 1.56%
Second compound 10 µM, first compound 0.00316 µM
  viability, T/C: 0.8%
Second compound 10 µM, first compound 0.01 µM
  viability, T/C: 1.71%
Second compound 10 µM, first compound 0.0316 µM
  viability, T/C: 0.41%
Second compound 10 µM, first compound 0.1 µM
  viability, T/C: 1.3%
Second compound 10 µM, first compound 0.316 µM
  viability, T/C: 0.67%
Second compound 10 µM, first compound 1 µM
  viability, T/C: 0.26%
